In patent US6663881B2 (priority 1993, dated 2003):

Legend:
[1] = system: balloon traumatized pig femoral arteries; assay: Biological stenting of balloon traumatized pig femoral arteries (luminal area morphometry); type: in vivo
Protocol: Pig femoral arteries were traumatized as described in Example 7, and then treated with cytochalasin B. About 1.5 to about 2 ml of cytochalasin B at 0.1 μg/ml was infused into portions of the artery that had been separated from other portions by ligatures. The artery was then pressurized for 3 minutes and the fluid aspirated. Approximately 8 to about 30 lambda of the solution is retained in the interstitial space surrounding the cells in the tunica media. Ten femoral arteries (two arteries obtained from each of the 5 pigs that were treated according to the single dose protocol described in Example 7) were then evaluated histologically at 4 days or 3 weeks after cytochalasin B adminstration. The maximal luminal area of each artery was measured and calculated from digitized microscopic images by a BQ System IV computerized morphometric analysis system (R & M Biometrics, Inc., Nashville, Tenn.). This experiment was repeated with 5 additional pigs (two arteries per pig; cytochalasin B dose=0.1 μg/ml, applied for 3 minutes at 1 atm pressure; same time points). The data obtained from the two experiments were combined.
The luminal area of the traumatized and cytochalasin B-treated segments of the arteries were also compared to the luminal area of the normal, untreated region of the femoral artery proximal to the test area. […]

[2] = system: balloon traumatized left carotid artery
[3] = system: Vascular smooth muscle cells (BO54); assay: Scratch-migration assay; type: cell-based, baboon; design: key: −=no toxicity; +1=minimal; +2=mild; +3=moderate; +4=marked toxicity; conditions: Continuous Exposure
Protocol: Scratch assays to determine the extent of smooth muscle cell migration inhibition by cytochalasin B were performed in accordance with the following protocol:
Vascular smooth muscle cells (BO54) were derived from explants of baboon aortic smooth muscle, as described in Example 10. The cells were grown in flat bottom, six well tissue culture plates, which hold about 5 ml of medium. The vascular smooth muscle cells were plated at 200,000 cells/well and placed at 37° C. in a humidified 5% CO2 incubator for 18 hours. The wells were then scratched with a sterile portion of a single edge razor blade that was held by clamp or pliers and was brought aseptically into contact with the bottom of the well at a 90° angle. The cells from a small area along the scratch were removed by a sterile cotton tipped applicator while the blade was in contact with the bottom of the well. After incubation, the presence of cells in the “scratched” area is indicative of cell migration across the scratch line.
Briefly, a stock solution of cytochalasin B (Sigma Chemical Co.) in dimethyl sulfoxide (DMSO) at 1 mg/ml was prepared. Test dilutions of cytochalasin B or control medium were added. Each experiment included two sets of plates:
A set: Test agent exposure for 1, 3, 6, 8 and 10 days only; and
B set: Test agent exposure for 1, 3, 6, 8 and 10 days, followed by a seven day recovery time with control medium.
Both sets of plates were fixed (10% formalin in PBS) and stained (0.02% crystal violet) at the end of the timed exposures. Test concentrations for cytochalasin B were 1, 0.1 and 0.01 μg/ml, and a negative medium control was included. […]
In this Table, “M” indicates Migration Grade, wherein −=no migration; +1=minimal; +2=mild; +3=moderate; and +4=marked (maximum density; limit of cell contact inhibition) migration of vascular smooth muscle cells into the cleared area adjacent to the scratch. […] The migration results are expressed as “Grade in the Cleared Area of the Well/Grade in an Undisturbed Region of the Well.” The toxicity values represent a grade for all cells in each well.

## C=C1[C@@H](C)[C@H]2[C@H](Cc3ccccc3)NC(=O)[C@]23OC(=O)/C=C/[C@H](O)CCC[C@@H](C)C/C=C/[C@H]3[C@@H]1O [cytochalasin B]
[1]; 0.1 μg/ml for cytochalasin B
  lumen area of test region vs normal control segment of the same artery: approximately two times as large
[1]; 0.1 μg/ml, 4 day and 3 week post-treatment
  luminal area vs other test agents or controls: larger luminal area
[1]; 0.1 μg/ml, two way analysis of variance
  artery lumen areas over three weeks vs diluent control: statistically significant difference (p<0.05)
[1]; 10 μg/ml dose, dose response study
  toxicity to the vascular smooth muscle cells: appeared to be toxic
[1]; about 0.1 to about 10.0 μg/ml
  myofilament reformation (electron micrographs): myofilament reformation was retarded
[1]; pig, in vivo
  constriction or vascular remodeling: did not undergo the constriction or chronic geometrical (vascular) remodeling
[1]; vs untreated balloon traumatized arteries
  incidence of mural microthrombi: decreased
[2]; 14 days
  morphometry vs untreated controls: no statistical difference from the controls
[2]; periadventitial crystals
  post-surgical weight gain: delay in post-surgical weight gain
  toxicity at the surgical site: significant toxicity at the surgical site
[3]; Day 6, 1.0 μg/mL
  Toxicity Grade: +4
[3]; Day 8, 1.0 μg/mL
  Toxicity Grade: +4
[3]; Day 10, 1.0 μg/mL
  Toxicity Grade: +4
